Measured values from PMC12169749, “Isolation, biochemical characterization, and primary structure and active site determination of Dioscorea opposita (‘Nagaimo’) oligopeptidase B” (Biochemistry and Biophysics Reports, 2025).
Numbered stars: 1 amine (or outer) side, 2 acyl side, 3 side chain; on linkers, the order of the positions; unused ones are H or OH. Peptide text beside a SMILES is read from it. * marks the point of attachment. AMC = Cc1cc(=O)oc2cc(N*)ccc12; Cbz = O=C(OCc1ccccc1)*; Boc = CC(C)(C)OC(=O)*; CO = O=C([*:1])[*:2]

What follows are molecules tested on T1, oligopeptidase B (OPB); Nagaimo protease (assay: fluorometric AMC release, Lineweaver-Burk). Conditions: Tris-HCl pH 8.0, 37 °C.
T1 construct: native, purified from tubers; monomer, 75 kDa by gel filtration, 81 kDa by reducing SDS-PAGE; internal tryptic peptide SAGGLLMGAVLNMR
Format: biochemical, Dioscorea polystachya
From the text: fluorometric AMC release, Lineweaver-Burk on oligopeptidase B (OPB); Nagaimo protease

SMILES	Km
Cc1cc(=O)oc2cc(NC(=O)[C@H](CCCNC(=N)N)NC(=O)[C@H](CCCNC(=N)N)NC(=O)[C@H](CCC(N)=O)NC(=O)OC(C)(C)C)ccc12 [Boc-Gln-Arg-Arg-MCA] (Boc-Gln-Arg-Arg-{AMC})	15 µM
Cc1cc(=O)oc2cc(NC(=O)[C@H](CCCNC(=N)N)NC(=O)[C@@H]3CCCN3C(=O)[C@@H](NC(=O)OC(C)(C)C)C(C)C)ccc12 [Boc-Val-Pro-Arg-MCA] (Boc-Val-Pro-Arg-{AMC})	12.5 µM
Cc1cc(=O)oc2cc(NC(=O)[C@H](CCCNC(=N)N)NC(=O)[C@H](Cc3ccccc3)NC(=O)OCc3ccccc3)ccc12 [Z-Phe-Arg-MCA] (Cbz-Phe-Arg-{AMC})	11 µM
Cc1cc(=O)oc2cc(NC(=O)[C@H](CCCNC(=N)N)NC(=O)[C@H](Cc3ccccc3)NC(=O)[C@@H]3CCCN3)ccc12 [Pro-Phe-Arg-MCA] (H-Pro-Phe-Arg-{AMC})	10 µM
Cc1cc(=O)oc2cc(NC(=O)[C@H](CCCNC(=N)N)NC(=O)[C@H](CC(C)C)NC(=O)OCc3ccccc3)ccc12 [Z-Leu-Arg-MCA]	12.5 µM
Cc1cc(=O)oc2cc(NC(=O)[C@H](CCCCN)NC(=O)[C@H](CC(C)C)NC(=O)[C@@H](NC(=O)OC(C)(C)C)C(C)C)ccc12 [Boc-Val-Leu-Lys-MCA] (Boc-Val-Leu-Lys-{AMC})	10 µM
Cc1cc(=O)oc2cc(NC(=O)[C@H](CCCNC(=N)N)NC(=O)[C@H](CCCNC(=N)N)NC(=O)OCc3ccccc3)ccc12 [Z-Arg-Arg-MCA] (Cbz-Arg-Arg-{AMC})	10 µM
Cc1cc(=O)oc2cc(NC(=O)[C@H](CCCNC(=N)N)NC(=O)[C@@H]3CCCN3C(=O)CNC(=O)OCc3ccccc3)ccc12 [Z-Gly-Pro-Arg-MCA] (Cbz-Gly-Pro-Arg-{AMC})	11.8 µM
Cc1cc(=O)oc2cc(NC(=O)[C@H](CCCNC(=N)N)NC(=O)c3ccccc3)ccc12 [Bz-Arg-MCA]	10 µM
Cc1cc(=O)oc2cc(NC(=O)[C@H](CCCCN)NC(=O)[C@H](CCCCN)NC(=O)[C@H](CCC(=O)O)NC(=O)OC(C)(C)C)ccc12 [Boc-Glu-Lys-Lys-MCA] (Boc-Glu-Lys-Lys-{AMC})	5 µM
Cc1cc(=O)oc2cc(NC(=O)[C@H](CCCNC(=N)N)NC(=O)[C@@H](NC(=O)[C@@H](NC(=O)OCc3ccccc3)C(C)C)C(C)C)ccc12 [Z-Val-Val-Arg-MCA] (Cbz-Val-Val-Arg-{AMC})	10 µM
Cc1cc(=O)oc2cc(NC(=O)[C@@H](N)CCCNC(=N)N)ccc12 [Arg-MCA]	17.9 µM

The molecules below were run against T1, oligopeptidase B (OPB); Nagaimo protease (assay: fluorometric AMC release, inhibitor titration). Conditions: 100 μM Bz-Arg-MCA, 50 mM Tris-HCl pH 8.0, 10 min preincubation at 23 °C, assay 37 °C.
Format: biochemical, Dioscorea polystachya
From the text: fluorometric AMC release, inhibitor titration on oligopeptidase B (OPB); Nagaimo protease

SMILES	IC50
CC(=O)N[C@@H](CC(C)C)C(=O)N[C@@H](CC(C)C)C(=O)N[C@H](C=O)CCCNC(=N)N [Leupeptin]	120 nM
CC(C)[C@H](NC(=O)[C@H](CCCNC(=N)N)NC(=O)N[C@@H](Cc1ccccc1)C(=O)O)C(=O)N[C@H](C=O)CCCNC(=N)N [Antipain] ({Phe-CO}-Arg-Val-Arg-aldehyde)	210 nM

Same assay, conditions: 100 μM Bz-Arg-MCA, 50 mM Tris-HCl pH 8.0, 10 min preincubation at 23 °C, assay 37 °C; covalent

SMILES	IC50
O=c1oc(Cl)c(Cl)c2ccccc12 [DCI, 3,4-dichloroisocoumarin]	30000 nM
NCCc1ccc(S(=O)(=O)F)cc1 [AEBSF, 4-(2-aminoethyl)-benzenesulfonyl fluoride]	700 nM
Cc1ccc(S(=O)(=O)N[C@@H](CCCCN)C(=O)CCl)cc1 [TLCK]	70 nM

Same assay, conditions: 100 μM Bz-Arg-MCA, 50 mM Tris-HCl pH 8.0, 10 min preincubation at 23 °C, assay 37 °C; covalent, cysteine-directed

SMILES	IC50
CCN1C(=O)C=CC1=O [NEM, N-ethylmaleimide]	880000 nM
